In patent US12077503B2, “Substituted cyclic amides and their use as herbicides” (FMC CORPORATION, priority 2015, dated 2024):

How the values were obtained:
Assay type in all cases: in vivo
[1] = tested on: giant foxtail (Setaria faberii); experiment: Test A preemergence; conditions: Setaria faberi, pre-emergence, 240 h, preemergence, 0 to 100 scale where 0 is no effect and 100 is complete control, read-out: Foxtail, Giant plant response rating; for pest or weed control at 125 g/ha: 125 g ai/ha, visual injury rating, approximately 10 d; for pest or weed control at 500 g/ha: 500 g ai/ha
Procedure, shortened: (§1)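 Greenhouse, ~10 d after spray; visual injury vs untreated controls, 0 = no effect, 100 = complete control. Preemergence: directed soil spray over planted seeds. Postemergence: plants 2–10 cm, 1–2 leaf stage. Loam/sand blend. Compound in non-phytotoxic solvent with surfactant.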

[2] = tested on: ryegrass, Italian (Italian ryegrass, Lolium multiflorum); experiment: Test A preemergence; conditions: Lolium multiflorum, pre-emergence, 240 h, preemergence, 0 to 100 scale where 0 is no effect and 100 is complete control, read-out: Ryegrass, Italian plant response rating; for pest or weed control at 125 g/ha: 125 g ai/ha, visual injury rating, approximately 10 d; for pest or weed control at 500 g/ha: 500 g ai/ha
Procedure, shortened: as §1

Kochia (Kochia scoparia) [3] = experiment: Test A preemergence; conditions: Bassia scoparia, pre-emergence, 240 h, preemergence, 0 to 100 scale where 0 is no effect and 100 is complete control, read-out: Kochia plant response rating; for pest or weed control at 125 g/ha: 125 g ai/ha, visual injury rating, approximately 10 d; for pest or weed control at 500 g/ha: 500 g ai/ha
Procedure, shortened: as §1

[4] = tested on: ragweed (common ragweed, Ambrosia elatior); experiment: Test A preemergence; conditions: Ambrosia artemisiifolia, pre-emergence, 240 h, preemergence, 0 to 100 scale where 0 is no effect and 100 is complete control, read-out: Ragweed plant response rating; for pest or weed control at 125 g/ha: 125 g ai/ha, visual injury rating, approximately 10 d; for pest or weed control at 500 g/ha: 500 g ai/ha
Procedure, shortened: as §1

[5] = tested on: pigweed (Amaranthus retroflexus); experiment: Test A preemergence; conditions: Amaranthus retroflexus, pre-emergence, 240 h, preemergence, 0 to 100 scale where 0 is no effect and 100 is complete control, read-out: Pigweed plant response rating; for pest or weed control at 125 g/ha: 125 g ai/ha, visual injury rating, approximately 10 d; for pest or weed control at 500 g/ha: 500 g ai/ha
[6] = tested on: barnyardgrass (Echinochloa crus-galli); experiment: Test A preemergence; conditions: Echinochloa crus-galli, pre-emergence, 240 h, preemergence, 0 to 100 scale where 0 is no effect and 100 is complete control, read-out: Barnyardgrass plant response rating; for pest or weed control at 125 g/ha: 125 g ai/ha, visual injury rating, approximately 10 d; for pest or weed control at 500 g/ha: 500 g ai/ha
Procedure, shortened: as §1

[7] = tested on: giant foxtail (Setaria faberii); experiment: Test A postemergence; conditions: Setaria faberi, post-emergence, 240 h, postemergence; for pest or weed control at 125 g/ha: 125 g ai/ha, visual injury vs untreated controls after approx. 10 d, 0 = no effect, 100 = complete control, read-out: Foxtail, Giant plant response rating (0 to 100 scale); for pest or weed control at 500 g/ha: 500 g ai/ha, 0 to 100 scale, 0 is no effect, 100 is complete control, read-out: Foxtail, Giant plant response rating
Procedure, shortened: as §1

[8] = tested on: ryegrass, Italian (Italian ryegrass, Lolium multiflorum); experiment: Test A postemergence; conditions: Lolium multiflorum, post-emergence, 240 h, postemergence; for pest or weed control at 125 g/ha: 125 g ai/ha, visual injury vs untreated controls after approx. 10 d, 0 = no effect, 100 = complete control, read-out: Ryegrass, Italian plant response rating (0 to 100 scale); for pest or weed control at 500 g/ha: 500 g ai/ha, 0 to 100 scale, 0 is no effect, 100 is complete control, read-out: Ryegrass, Italian plant response rating
Procedure, shortened: as §1

[9] = tested on: Galium (catchweed bedstraw, Galium aparine); experiment: Test A postemergence; conditions: Galium, post-emergence, 240 h, postemergence; for pest or weed control at 125 g/ha: 125 g ai/ha, visual injury vs untreated controls after approx. 10 d, 0 = no effect, 100 = complete control, read-out: Galium plant response rating (0 to 100 scale); for pest or weed control at 500 g/ha: 500 g ai/ha, 0 to 100 scale, 0 is no effect, 100 is complete control, read-out: Galium plant response rating
Procedure, shortened: as §1

Kochia (Kochia scoparia) [10] = experiment: Test A postemergence; conditions: Bassia scoparia, post-emergence, 240 h, postemergence; for pest or weed control at 125 g/ha: 125 g ai/ha, visual injury vs untreated controls after approx. 10 d, 0 = no effect, 100 = complete control, read-out: Kochia plant response rating (0 to 100 scale); for pest or weed control at 500 g/ha: 500 g ai/ha, 0 to 100 scale, 0 is no effect, 100 is complete control, read-out: Kochia plant response rating
Procedure, shortened: as §1

[11] = tested on: ragweed (common ragweed, Ambrosia elatior); experiment: Test A postemergence; conditions: Ambrosia artemisiifolia, post-emergence, 240 h, postemergence; for pest or weed control at 125 g/ha: 125 g ai/ha, visual injury vs untreated controls after approx. 10 d, 0 = no effect, 100 = complete control, read-out: Ragweed plant response rating (0 to 100 scale); for pest or weed control at 500 g/ha: 500 g ai/ha, 0 to 100 scale, 0 is no effect, 100 is complete control, read-out: Ragweed plant response rating
Procedure, shortened: as §1

[12] = tested on: pigweed (Amaranthus retroflexus); experiment: Test A postemergence; conditions: Amaranthus retroflexus, post-emergence, 240 h, postemergence; for pest or weed control at 125 g/ha: 125 g ai/ha, visual injury vs untreated controls after approx. 10 d, 0 = no effect, 100 = complete control, read-out: Pigweed plant response rating (0 to 100 scale); for pest or weed control at 500 g/ha: 500 g ai/ha, 0 to 100 scale, 0 is no effect, 100 is complete control, read-out: Pigweed plant response rating
Procedure, shortened: as §1

corn (Zea mays) = experiment: Test A postemergence; conditions: Zea mays, post-emergence, 240 h, postemergence; for plant injury at 125 g/ha: 125 g ai/ha, visual injury vs untreated controls after approx. 10 d, 0 = no effect, 100 = complete control, read-out: Corn plant response rating (0 to 100 scale); for plant injury at 500 g/ha: 500 g ai/ha, 0 to 100 scale, 0 is no effect, 100 is complete control, read-out: Corn plant response rating
Procedure, shortened: as §1

[13] = tested on: blackgrass (Alopecurus myosuroides); experiment: Test A postemergence; conditions: Alopecurus myosuroides, post-emergence, 240 h, postemergence; for pest or weed control at 125 g/ha: 125 g ai/ha, visual injury vs untreated controls after approx. 10 d, 0 = no effect, 100 = complete control, read-out: Blackgrass plant response rating (0 to 100 scale); for pest or weed control at 500 g/ha: 500 g ai/ha, 0 to 100 scale, 0 is no effect, 100 is complete control, read-out: Blackgrass plant response rating
Procedure, shortened: as §1

[14] = tested on: wheat (Triticum aestivum); experiment: Test A postemergence; conditions: Triticum aestivum, post-emergence, 240 h, postemergence; for plant injury at 125 g/ha: 125 g ai/ha, visual injury vs untreated controls after approx. 10 d, 0 = no effect, 100 = complete control, read-out: Wheat plant response rating (0 to 100 scale); for plant injury at 500 g/ha: 500 g ai/ha, 0 to 100 scale, 0 is no effect, 100 is complete control, read-out: Wheat plant response rating
Procedure, shortened: as §1

| SMILES | pest or weed control at 125 g/ha [1] [%] | pest or weed control at 500 g/ha [1] [%] | pest or weed control at 125 g/ha [2] [%] | pest or weed control at 500 g/ha [2] [%] | pest or weed control at 125 g/ha (Kochia (Kochia scoparia) [3]) [%] | pest or weed control at 500 g/ha (Kochia (Kochia scoparia) [3]) [%] | pest or weed control at 125 g/ha [4] [%] | pest or weed control at 500 g/ha [4] [%] | pest or weed control at 125 g/ha [5] [%] | pest or weed control at 500 g/ha [5] [%] | pest or weed control at 125 g/ha [6] [%] | pest or weed control at 500 g/ha [6] [%] | pest or weed control at 125 g/ha [7] [%] | pest or weed control at 500 g/ha [7] [%] | pest or weed control at 125 g/ha [8] [%] | pest or weed control at 500 g/ha [8] [%] | pest or weed control at 125 g/ha [9] [%] | pest or weed control at 500 g/ha [9] [%] | pest or weed control at 125 g/ha (Kochia (Kochia scoparia) [10]) [%] | pest or weed control at 500 g/ha (Kochia (Kochia scoparia) [10]) [%] | also measured |
| --- | --- | --- | --- | --- | --- | --- | --- | --- | --- | --- | --- | --- | --- | --- | --- | --- | --- | --- | --- | --- | --- |
| COc1cc(C(F)(F)F)ccc1[C@H]1CNC(=O)[C@@H]1C(=O)Nc1cccc(F)c1F [Compound 1203] | 80 | 90 | 0 | 20 | 20 | 50 | 30 | 80 | 0 | 20 | 80 | 90 | 90 | 90 | 0 | 0 | 50 | 60 | 40 | 60 | pest or weed control at 125 g/ha [11]: 20%; pest or weed control at 500 g/ha [11]: 30%; pest or weed control at 125 g/ha [12]: 0%; pest or weed control at 500 g/ha [12]: 20%; plant injury at 125 g/ha (corn (Zea mays)): 40%; plant injury at 500 g/ha (corn (Zea mays)): 70%; pest or weed control at 125 g/ha [13]: 20%; pest or weed control at 500 g/ha [13]: 60%; plant injury at 125 g/ha [14]: 0%; plant injury at 500 g/ha [14]: 50% |
| COc1cc([C@H]2CN(C)C(=O)[C@@H]2C(=O)Nc2ccccc2SC)cc(OC)c1OC [Compound 1218] | 80 | 90 | 0 | 0 | 0 | 0 | 0 | 0 | 0 | 0 | 30 | 100 | 0 | 50 | 0 | 0 | 0 | 0 | 0 | 20 | pest or weed control at 125 g/ha [11]: 0%; pest or weed control at 500 g/ha [11]: 0%; pest or weed control at 125 g/ha [12]: 0%; pest or weed control at 500 g/ha [12]: 0%; plant injury at 125 g/ha (corn (Zea mays)): 0%; plant injury at 500 g/ha (corn (Zea mays)): 0%; pest or weed control at 125 g/ha [13]: 0%; pest or weed control at 500 g/ha [13]: 0%; plant injury at 125 g/ha [14]: 0%; plant injury at 500 g/ha [14]: 0% |
